Experimental data: article PMC8286840, “Identifying SARS-CoV-2 antiviral compounds by screening for small molecule inhibitors of Nsp3 papain-like protease” (Biochemical Journal, 2021)
Where a name gives a salt, the structure may show the parent alone. Read-outs that look alike come from different tables or passages of the source. Where a SMILES comes first, the peptide text is derived from it. The star is where a group is joined. Cbz = O=C(OCc1ccccc1)*

What was measured:
[1] = target: T1, SARS-CoV-2 PLpro (nsp3 1564–1878) (Severe acute respiratory syndrome coronavirus 2, UniProt P0DTD1); test: biochemical; set-up: FRET-quenched peptide (Pro3) cleavage by PLpro, 10 min pre-incubation, slope over 20 min, normalised to no-compound control; conditions: read-out: % of control remaining
[2] = target: T1, SARS-CoV-2 PLpro (nsp3 1564–1878); test: biochemical; set-up: FRET-quenched peptide (Pro3) cleavage by PLpro, 10 min pre-incubation, slope over 20 min, normalised to no-compound control; conditions: read-out: % of control remaining; remark: listed apart in the source

NC(=O)CCCSc1nc(N)nc(-c2c(Cl)cc3c4c(cccc24)COC3)n1 [CH5138303]
remaining activity at 3.75 µM ([1]; Well no.=8668, high concentration screen): 90.8%
remaining activity at 1.25 µM ([2]; Well no.=8668, low concentration screen): 95%

CCc1cc2c(cc1N1CCC(N3CCOCC3)CC1)C(C)(C)c1[nH]c3cc(C#N)ccc3c1C2=O [CH5424802]
remaining activity at 3.75 µM ([1]; Well no.=5077, high concentration screen): 104%
remaining activity at 1.25 µM ([2]; Well no.=5077, low concentration screen): 104%

CC[C@H](C)[C@H](NC(=O)OCc1ccccc1)C(=O)N[C@@H](CCC(=O)O)C(=O)N1CCC[C@H]1C(=O)N[C@@H](Cc1ccccc1)C(=O)OC [CH 5450] (Cbz-IEPF-OMe)
remaining activity at 3.75 µM ([1]; Well no.=8516, high concentration screen): 102%
remaining activity at 1.25 µM ([2]; Well no.=8516, low concentration screen): 101%

Cc1ccccc1N=Nc1ccc(NC(=O)c2ccnn2C)c(C)c1 [CH-223191]
remaining activity at 3.75 µM ([1]; Well no.=5835, high concentration screen): 98.7%
remaining activity at 3.75 µM ([1]; Well no.=7892, high concentration screen): 95.5%
remaining activity at 1.25 µM ([2]; Well no.=5835, low concentration screen): 97.1%
remaining activity at 1.25 µM ([2]; Well no.=7892, low concentration screen): 99.1%

Cc1cnc(-c2cnc(NCCNc3ccc(C#N)cn3)nc2-c2ccc(Cl)cc2Cl)[nH]1 [CHIR99021]
remaining activity at 3.75 µM ([1]; Well no.=5511, high concentration screen): 101%
remaining activity at 1.25 µM ([2]; Well no.=5511, low concentration screen): 99.8%

O=c1[nH]c2ccc(Cl)cc2c(N[C@@H]2CN3CCC2CC3)c1-c1nc2ccccc2[nH]1 [CHIR-124]
remaining activity at 3.75 µM ([1]; Well no.=5338, high concentration screen): 97.2%
remaining activity at 1.25 µM ([2]; Well no.=5338, low concentration screen): 96.2%

CN1CCN(c2ccc3nc(-c4c(N)c5c(F)cccc5[nH]c4=O)[nH]c3c2)CC1 [CHIR-258]
remaining activity at 3.75 µM ([1]; Well no.=2757, high concentration screen): 95.3%
remaining activity at 1.25 µM ([2]; Well no.=2757, low concentration screen): 96.4%

Nc1nc(NCCNc2ncc(-n3ccnc3)c(-c3ccc(Cl)cc3Cl)n2)ccc1[N+](=O)[O-] [CHIR-98014]
remaining activity at 3.75 µM ([1]; Well no.=5035, high concentration screen): 96.8%
remaining activity at 1.25 µM ([2]; Well no.=5035, low concentration screen): 101%

CC(=O)Nc1ccc(C(=O)Nc2ccccc2N)cc1 [CI994 (Tacedinaline)]
remaining activity at 3.75 µM ([1]; Well no.=5165, high concentration screen): 101%
remaining activity at 1.25 µM ([2]; Well no.=5165, low concentration screen): 103%

O=C(NOCC1CC1)c1ccc(F)c(F)c1Nc1ccc(I)cc1Cl [CI-1040]
remaining activity at 3.75 µM ([1]; Well no.=2741, high concentration screen): 102%
remaining activity at 1.25 µM ([2]; Well no.=2741, low concentration screen): 100%

O=C1NCCCc2c1oc1ccc(O)cc21 [CID755673]
remaining activity at 3.75 µM ([1]; Well no.=6214, high concentration screen): 96%
remaining activity at 1.25 µM ([2]; Well no.=6214, low concentration screen): 104%

Cc1cc2nc(NCCCO)n(CC(=O)c3cc(C(C)(C)C)c(O)c(C(C)(C)C)c3)c2cc1C [CID2858522]
remaining activity at 3.75 µM ([1]; Well no.=5503, high concentration screen): 109%
remaining activity at 1.25 µM ([2]; Well no.=5503, low concentration screen): 104%

O=C(Nc1ccc(CN2CCOCC2)cc1)c1ccc(-c2cccc(Cl)c2)o1 [CID 2011756]
remaining activity at 3.75 µM ([1]; Well no.=6582, high concentration screen): 101%
remaining activity at 1.25 µM ([2]; Well no.=6582, low concentration screen): 97.3%

Cc1ccc(-c2n[nH]c3c2C(c2cccc(O)c2)N(c2ccc(C(=O)O)cc2)C3=O)cc1 (stereo not shown) [CID 16020046]
remaining activity at 3.75 µM ([1]; Well no.=7821, high concentration screen): 102%
remaining activity at 1.25 µM ([2]; Well no.=7821, low concentration screen): 96.2%

O=S(=O)(c1ccc2c(c1)C(=NO)c1cc(S(=O)(=O)N3CCCCC3)ccc1-2)N1CCCCC1 [CIL56]
remaining activity at 3.75 µM ([1]; Well no.=6774, high concentration screen): 95.6%
remaining activity at 1.25 µM ([2]; Well no.=6774, low concentration screen): 98.2%

C[C@H](NC(=O)c1cc(Cl)ccc1Oc1ccc(F)cc1)c1ccc(C(=O)O)cc1 [CJ-42794]
remaining activity at 3.75 µM ([1]; Well no.=6222, high concentration screen): 94.2%
remaining activity at 1.25 µM ([2]; Well no.=6222, low concentration screen): 98%

O=C1CSC(c2cccc(Br)c2)N1c1cc(Cl)ccc1O (stereo not shown) [CK-548]
remaining activity at 3.75 µM ([1]; Well no.=6054, high concentration screen): 96.3%
remaining activity at 1.25 µM ([2]; Well no.=6054, low concentration screen): 97.5%

Cc1[nH]c2ccccc2c1CCNC(=O)c1cccs1 [CK-636]
remaining activity at 3.75 µM ([1]; Well no.=5636, high concentration screen): 100%
remaining activity at 1.25 µM ([2]; Well no.=5636, low concentration screen): 102%

Cc1[nH]c2ccccc2c1CCNC(=O)c1ccccc1F [CK-666]
remaining activity at 3.75 µM ([1]; Well no.=5720, high concentration screen): 95.4%
remaining activity at 1.25 µM ([2]; Well no.=5720, low concentration screen): 95.1%

C[C@H](Cc1ccc2c(c1)OC(C(=O)O)(C(=O)O)O2)NC[C@H](O)c1cccc(Cl)c1 [CL 316,243]
remaining activity at 3.75 µM ([1]; Well no.=276, high concentration screen): 101%
remaining activity at 1.25 µM ([2]; Well no.=276, low concentration screen): 96.9%

N#C[C@H]1[C@H](O)[C@@H](CO)O[C@H]1n1ccc(N)nc1=O [CNDAC (hydrochloride)]
remaining activity at 3.75 µM ([1]; Well no.=7866, high concentration screen): 94.8%
remaining activity at 1.25 µM ([2]; Well no.=7866, low concentration screen): 91.6%

N#Cc1cc2nc(O)c(O)nc2cc1[N+](=O)[O-] [CNQX disodium]
remaining activity at 3.75 µM ([1]; Well no.=681, high concentration screen): 102%
remaining activity at 1.25 µM ([2]; Well no.=681, low concentration screen): 101%

CCc1cccc(N(C)C(=N)Nc2cccc3ccccc23)c1 [CNS-1102]
remaining activity at 3.75 µM ([1]; Well no.=366, high concentration screen): 100%
remaining activity at 1.25 µM ([2]; Well no.=366, low concentration screen): 99.2%

S=C(N/N=C1\CCCc2cccnc21)N1CCN(c2ccccn2)CC1 [COTI-2]
remaining activity at 3.75 µM ([1]; Well no.=6156, high concentration screen): 110%
remaining activity at 1.25 µM ([2]; Well no.=6156, low concentration screen): 109%

CCCCCCC(C)(C)c1ccc([C@@H]2C[C@H](O)CC[C@H]2CCCO)c(O)c1 [CP55940]
remaining activity at 3.75 µM [1]: 106%
remaining activity at 1.25 µM [2]: 104%

COCCOc1ccc2c(c1)ncn2-c1ccc2cccc(N3CCC(N)CC3)c2n1 [CP 673451]
remaining activity at 3.75 µM ([1]; Well no.=5285, high concentration screen): 102%
remaining activity at 1.25 µM ([2]; Well no.=5285, low concentration screen): 97.9%

C[C@@H]([C@@H](O)c1ccc(O)cc1)N1CCC(O)(c2ccccc2)CC1 [CP-101,606]
remaining activity at 3.75 µM ([1]; Well no.=5843, high concentration screen): 93.1%
remaining activity at 1.25 µM ([2]; Well no.=5843, low concentration screen): 94.8%

Nc1nc2ccc(Cl)cc2n2c(-c3ccccc3)nnc12 [CP-66713]
remaining activity at 3.75 µM ([1]; Well no.=5624, high concentration screen): 96%
remaining activity at 1.25 µM ([2]; Well no.=5624, low concentration screen): 96.6%

CN(C)C(=O)[C@H](O)[C@H](Cc1ccccc1)NC(=O)c1cc2cc(Cl)ccc2[nH]1 [CP-91149]
remaining activity at 3.75 µM ([1]; Well no.=5021, high concentration screen): 104%
remaining activity at 1.25 µM ([2]; Well no.=5021, low concentration screen): 101%

COc1ccccc1CN[C@H]1C2CCN(CC2)[C@H]1C(c1ccccc1)c1ccccc1 [CP-96345]
remaining activity at 3.75 µM ([1]; Well no.=5867, high concentration screen): 96.7%
remaining activity at 1.25 µM ([2]; Well no.=5867, low concentration screen): 97.7%

C[C@@H]([C@@H](O)c1ccc(O)cc1)N1CCC(O)(c2ccccc2)CC1 [CP-101606 mesylate]
remaining activity at 3.75 µM ([1]; Well no.=5955, high concentration screen): 98.9%
remaining activity at 1.25 µM ([2]; Well no.=5955, low concentration screen): 98.1%

COc1cc2ncnc(-n3nc(-c4ccccn4)nc3N)c2cc1OC [CP-466722]
remaining activity at 3.75 µM ([1]; Well no.=5158, high concentration screen): 101%
remaining activity at 1.25 µM ([2]; Well no.=5158, low concentration screen): 103%

COCC(=O)NC/C=C/c1ccc2ncnc(Nc3ccc(Oc4ccc(C)nc4)c(C)c3)c2c1 [CP-724714]
remaining activity at 3.75 µM ([1]; Well no.=2837, high concentration screen): 103%
remaining activity at 1.25 µM ([2]; Well no.=2837, low concentration screen): 103%

Clc1cccc(COc2cncc(N3CCNCC3)n2)c1 [CP-809101 (hydrochloride)]
remaining activity at 3.75 µM ([1]; Well no.=7851, high concentration screen): 83.3%
remaining activity at 1.25 µM ([2]; Well no.=7851, low concentration screen): 95.1%

Cc1sc2c(c1C)C(c1ccc(Cl)cc1)=N[C@@H](CC(N)=O)c1nnc(C)n1-2 [CPI203]
remaining activity at 3.75 µM ([1]; Well no.=5824, high concentration screen): 98%
remaining activity at 1.25 µM ([2]; Well no.=5824, low concentration screen): 99.9%

Cc1ccc(-c2nc(N)nc3c2nnn3Cc2cccc(CO[C@H]3CCOC3)n2)o1 [CPI-444]
remaining activity at 3.75 µM ([1]; Well no.=8549, high concentration screen): 97%
remaining activity at 1.25 µM ([2]; Well no.=8549, low concentration screen): 105%

O=C(O)CCCCC(CCSCc1ccccc1)SCc1ccccc1 (stereo not shown) [CPI-613]
remaining activity at 3.75 µM ([1]; Well no.=5083, high concentration screen): 88.8%
remaining activity at 1.25 µM ([2]; Well no.=5083, low concentration screen): 97.7%
